In patent publication US20190151289A1, “Identification of Small Molecule Inhibitors of Jumonji AT-Rich Interactive Domain 1A (JARID1A) Histone Demethylase” (YALE UNIVERSITY, priority 2016, published 2019):

Columns and labels:
KDM5C = target: T1, KDM5C (Homo sapiens, UniProt P41229); assay: AlphaScreen KDM5C demethylation assay; assay type: biochemical
T1 construct: FLAG; made in house
Description: Histone demethylase assays were performed using previously described methods (Sayegh et al., 2013, J. Biol. Chem. 9408-9417), with the exception of all enzyme reactions containing 125 μM α-KG. Enzymes were used at the following approximate concentrations in validation experiments, chosen based on their activity in AlphaScreen assays: 19 nM FLAG-KDM5A, 15 nM FLAG-KDM5B, 6 nM FLAG-KDM5C, 29 nM His-FLAG-KDM6A, and 16 nM FLAG-KDM6B. 24 nM FLAG-KDM5A was used for Km determination experiments. Reactions were carried out for 1 hour, or were stopped by addition of 30 mM EDTA every 5 minutes for determining enzyme kinetics. Km values were calculated using the Michaelis-Menten non-linear regression analysis on GraphPad Prism 6.0 software. The concentration of DMSO in demethylation reactions was 0.05%. For reactions with catalase, catalase (Sigma C30) or an equal volume of dilution buffer was added to the peptide-containing buffer before addition of the demethylase. The final concentration of catalase in the reactions was 0.01 mg/ml.
The AlphaScreen general IgG (protein A) detection kit from PerkinElmer Life Sciences was used as described previously (Sayegh et al., 2013, J. Biol. Chem. 9408-9417). The luminescence emission was recorded at 570 nm using the AlphaScreen optic module on a Pherastar (BMG Labtech) or Envision (PerkinElmer Life Sciences) microplate reader.

[1] = system: H3K4 methylation in HeLa cells; assay: Western blot of global H3K4 methylation, HeLa; assay type: cell-based, human
Description: (§1) Sf21 insect cells were cultured at 27° C. in Grace's medium (Gibco) with 10% fetal bovine serum (FBS) and 1% penicillin/streptomycin. HeLa cells were cultured in DMEM (Gibco) with 10% FBS and 1% penicillin/streptomycin. BT474, MCF7, MDA-MB-231, PC9 and ZR-75-1 cells were cultured in RPMI 1640 (Gibco) with 10% FBS and 1% penicillin/streptomycin. MCF10A cells were cultured as using previously described methods (Sayegh et al., 2013, J. Biol. Chem. 9408-9417). All human cells were cultured at 37° C. and 5% carbon dioxide. HeLa and MCF7 cell lines were authenticated using short tandem repeat profiling performed at the DNA Analysis Facility on Science Hill at Yale University. All other human cell lines used were within 10 passages after being obtained from the American Type Culture Collection.
Cells were lysed using previously described methods (Lin et al., 2011, Proc. Natl. Acad. Sci. U.S.A. 108:13379-13386). Histones were separated by centrifugation, resuspended in Laemmeli buffer, and sonicated. Protein concentration of cell lysates was measured by Bradford assay. Samples in Laemmeli buffer were boiled 10 minutes at 95° C. and loaded onto 7% (whole cell lysates) or 18% (histones) SDS-PAGE gels. Membranes were blocked in 4% non-fat milk in Tris-buffered saline with 0.05% Tween (TBS-T) and incubated with primary antibodies in the same buffer or 5% bovine serum albumin in TBS-T overnight at 4° C. Membranes were incubated with secondary anti-rabbit or anti-mouse antibodies for one hour at room temperature. Blots were visualized by Thermo Scientific Pierce ECL Western Blotting Substrate (32106) or EMD Millipore Immobilon Western Chemiluminescent HRP Substrate (WBKLS0100) on film. Signal was quantified using ImageJ software.

[2] = system: H3K4 methylation in ZR-75-1 cells; assay: Western blot of global H3K4 methylation, ZR-75-1; assay type: cell-based, human; settings: ZR-75-1, 48 hour treatment
Description: as §1
(§2) Cells were lysed using previously described methods (Lin et al., 2011, Proc. Natl. Acad. Sci. U.S.A. 108:13379-13386). Histones were separated by centrifugation, resuspended in Laemmeli buffer, and sonicated. Protein concentration of cell lysates was measured by Bradford assay. Samples in Laemmeli buffer were boiled 10 minutes at 95° C. and loaded onto 7% (whole cell lysates) or 18% (histones) SDS-PAGE gels. […] Signal was quantified using ImageJ software.

[3] = system: H3K4 methylation in MCF10A cells; assay: Western blot of global H3K4 methylation, MCF10A; assay type: cell-based, human; settings: 72 hr treatment
Description: as §1, §2

HeLa cells = assay: WST-1 cell proliferation assay, HeLa; assay type: cell-based, human; settings: after 3 days
Description: (§3) WST-1 reagent from Roche Applied Sciences (11644807001) was used to measure cell number before drug addition and after 3 or 5 days of growth using previously described methods (Sayegh et al., 2013, J. Biol. Chem. 9408-9417). Cells were seeded in 96-well plates at the following number of cells per well: HeLa (2000), MCF7 (2000), ZR-75-1 (1000), MCF10A (1000), MDA-MB-231(5000). Assays were performed in technical quadruplicates and biological triplicates. DMSO was used at 0.1%. Relative absorbance was calculated by subtracting the average background (media only) signal, dividing by the average signal on day 0, and then dividing by the average day 5/day 0 ratio for the DMSO controls. Significance was calculated by unpaired, two-tailed student's t-test using GraphPad Prism 6.0 software.

ZR-75-1 cells = assay: WST-1 cell proliferation assay, ZR-75-1; assay type: cell-based, human; settings: ZR-75-1, 5 days of treatment
Description: as §3

PC9 cells = assay: Colony formation assay, PC9 (gefitinib tolerance); assay type: cell-based, human
Description: (§4) Cells were seeded in 6-well plates at low density: HeLa, MCF7, BT474, and PC9 cells at 1000, 2000, 2500, and 2000 cells/well respectively. Media containing the prescribed drugs or 0.1% DMSO was replaced every 3 days. Trastuzumab was used at 5 μg/ml. Gefitinib was used at 2 μM. YUKA1 was used at 50 or 100 μM. Doxycycline was used at 1 μg/ml for 3 days. After 7-42 days depending on the rate of cell growth, cells were fixed in 4% para-formaldehyde in phosphate-buffered saline for 10 minutes rocking at room temperature. They were incubated in 0.05% crystal violet in double-distilled water for 30 minutes rocking at room temperature, washed with water, and dried 24 hours before photographing. ColonyArea, a plugin for ImageJ software, was used for quantification (Guzman et al., 2014, PloS One 9:e92444). Unpaired, two-tailed student's t-test was used to determine significance using GraphPad Prism 6.0 software.

BT474 cells = assay: Colony formation assay, BT474 (trastuzumab tolerance); assay type: cell-based, human
Description: as §4

MDA-MB231 cells = assay: Colony formation assay, MDA-MB231; assay type: cell-based, human; settings: 5 μM KDMS-C70 or 50 or 100 μM YUKA1
Description: as §4
HeLa (FIG. 11A) and MDA-MB231 cells (FIG. 11B) were treated with DMSO, 5 μM KDMS-C70 or 50 or 100 μM YUKA1 in colony-formation assays. The tables in FIGS. 11C and 11D depict the quantification of experimental data.

T1 sequence (P41229 whole entry): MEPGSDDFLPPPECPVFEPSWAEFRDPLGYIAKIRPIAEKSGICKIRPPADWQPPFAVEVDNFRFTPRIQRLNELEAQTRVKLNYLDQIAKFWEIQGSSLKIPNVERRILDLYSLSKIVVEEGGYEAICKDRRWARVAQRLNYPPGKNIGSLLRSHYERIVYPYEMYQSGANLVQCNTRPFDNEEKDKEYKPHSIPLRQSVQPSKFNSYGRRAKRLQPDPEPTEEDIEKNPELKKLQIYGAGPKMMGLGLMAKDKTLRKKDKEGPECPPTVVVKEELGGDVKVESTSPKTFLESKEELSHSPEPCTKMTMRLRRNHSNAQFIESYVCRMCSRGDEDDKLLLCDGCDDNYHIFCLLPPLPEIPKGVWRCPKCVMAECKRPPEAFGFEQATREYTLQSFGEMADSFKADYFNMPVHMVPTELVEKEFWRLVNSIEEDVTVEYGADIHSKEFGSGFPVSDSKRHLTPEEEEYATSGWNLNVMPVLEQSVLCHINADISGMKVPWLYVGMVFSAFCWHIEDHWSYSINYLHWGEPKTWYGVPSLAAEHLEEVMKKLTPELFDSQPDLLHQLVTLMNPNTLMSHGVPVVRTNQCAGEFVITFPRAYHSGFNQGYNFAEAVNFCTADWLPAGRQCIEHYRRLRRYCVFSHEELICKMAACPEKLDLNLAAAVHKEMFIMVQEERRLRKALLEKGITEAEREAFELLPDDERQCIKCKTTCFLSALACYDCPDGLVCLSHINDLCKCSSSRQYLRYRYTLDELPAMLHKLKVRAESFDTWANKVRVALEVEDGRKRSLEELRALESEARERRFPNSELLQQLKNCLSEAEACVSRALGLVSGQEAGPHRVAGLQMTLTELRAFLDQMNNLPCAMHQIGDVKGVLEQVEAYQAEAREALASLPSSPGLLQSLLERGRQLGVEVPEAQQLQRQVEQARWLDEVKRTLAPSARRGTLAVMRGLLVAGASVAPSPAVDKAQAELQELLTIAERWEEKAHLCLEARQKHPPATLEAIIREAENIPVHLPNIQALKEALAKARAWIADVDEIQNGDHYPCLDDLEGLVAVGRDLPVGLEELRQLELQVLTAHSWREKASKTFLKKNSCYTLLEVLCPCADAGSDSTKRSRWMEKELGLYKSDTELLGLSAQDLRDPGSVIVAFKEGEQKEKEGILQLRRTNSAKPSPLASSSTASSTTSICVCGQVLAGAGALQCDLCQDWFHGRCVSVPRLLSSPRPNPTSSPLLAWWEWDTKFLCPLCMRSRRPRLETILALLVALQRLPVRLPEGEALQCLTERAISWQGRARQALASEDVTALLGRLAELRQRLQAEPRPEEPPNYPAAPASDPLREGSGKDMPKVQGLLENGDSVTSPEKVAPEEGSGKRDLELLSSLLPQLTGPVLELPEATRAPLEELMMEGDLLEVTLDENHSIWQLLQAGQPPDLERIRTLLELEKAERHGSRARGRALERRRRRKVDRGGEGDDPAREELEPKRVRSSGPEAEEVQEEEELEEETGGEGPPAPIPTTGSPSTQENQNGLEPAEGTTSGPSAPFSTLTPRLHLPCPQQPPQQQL

C=CCOc1c(CNn2cnnc2S)cccc1OC [YUKA1, 4-([2-(allyloxy)-3-methoxybenzyl]amino)-4H-1,2,4-triazole-3-thiol]
fold less active against KDM5C (vs KDM5A) (KDM5C): ~3 fold | H3K4me2 and H3K4me1 levels ([1]; HeLa): increased | cell activity by global H3K4 methylation changes ([1]; HeLa and MCF7 cell lines, western blot): cell-active | global H3K4me3 levels ([1]; HeLa, 48 hour treatment): dose-dependent increase | global H3K4me3 levels [2]: increased global H3K4me3 levels | H3K4 methylation levels [3]: did not affect H3K4 methylation levels | cell proliferation relative to DMSO (HeLa cells): less than half of DMSO-treated cells | cell proliferation (ZR-75-1 cells): decreased cell proliferation during 5 days of treatment in a dose-dependent manner | cell growth, compound alone (PC9 cells; PC9, compound alone): not significantly affected | colony formation under gefitinib vs DMSO control (PC9 cells; PC9, long-term treatment with 2 μM gefitinib plus compound): fewer YUKA1-treated cells formed colonies | cell growth, compound alone (BT474 cells; BT474, compound alone): not changed | emergence of colonies under trastuzumab (BT474 cells; BT474, trastuzumab 5 μg/ml plus compound): significantly less | growth in colony-formation assay (MDA-MB231 cells): suppresses growth
